Earlier results on 2 compounds are cited in patent US20090022786A1, “Oral pharmaceutical dosage form and manufacturing method thereof” (YUNG SHIN PHARM. IND. CO., LTD., priority 2007, published 2009).

Assay in data set [1]: not given
The source holds these as a separate data set.

Data set [2] relates to gastric acid secretion. The note with it: oral.
Assay in data set [3]: not given
This is another data set of the same source.

Assay in data set [4]: not given
The source holds these as a separate data set.

Where [5] appears, read: as glucuronate- or sulfate-associated form.

Where a name gives a salt, the structure may show the parent alone. Read-outs that look alike come from different tables or passages of the source.

Turning to `CCCCC(C)(O)C/C=C/[C@H]1[C@H](O)CC(=O)[C@@H]1CCCCCCC(=O)OC` (mixture of isomers) [Misoprostol, (±) methyl 11α,16-dihydroxy-16-methyl-9-oxoprost-13E-en-1-oate], where the note is “in 24 hours”, the “Fraction eliminated with urine” value is 64-73%. Moreover, where the note is “in vivo”, the Elimination half-life was 20 to 40 min and the “Fraction eliminated with the faeces” value is 15%. Under “oral”, the “Absorption after oral administration” value is “rapidly absorbed” and the “Time of maximum plasma concentration” value was 15 to 30 min. Besides, in data set [1] (room temperature), the “Stability at room temperature” value is given as “very unstable”. In data set [2], the “Time to inhibition of gastric acid secretion” value is given as at most 30 min. Further, the Solubility in water result in data set [3] is “soluble”.
Take `O=C(O)Cc1ccccc1Nc1c(Cl)cccc1Cl` [Diclofenac sodium, 2-[(2,6-dichlorophenyl)amino] benzene acetic acid, monosodium salt]: in data set [4] (setting [5]), the “Fraction eliminated with the faeces after biliary secretion” value was 1/30 and the “Fraction eliminated with urine” value is “⅔”. In data set [4] (in vivo), the “Binding to plasma protein” value is on record as “More than 90%” and the Half-life was 60 to 120 min. Moreover, the “Fraction entering systematic circulation” value in data set [4] (oral) was 50-60%. For the same compound, in data set [4] (oral single dose of 50 mg), the “Peak value of plasma concentration” value is 1.5 µg/mL and the “Time of maximum plasma concentration” value is 1 to 2 h. In data set [1] (humidity and light), the “Stability to humidity and light” value is “accessible to be destroyed by humidity and light”. Besides, the Solubility in chloroform entry in data set [3] (chloroform) is “extremely insoluble”. Besides, the Solubility in ethanol result in data set [3] (ethanol) was “soluble”. Also, the Solubility in methanol entry in data set [3] (methanol) was “soluble”. Besides, the Solubility in water entry in data set [3] is given as “somewhat”.
